According to US5192525A (Board of Regents, The University of Texas System, priority 1991, dated 1993):
pIC50, pKi: −log10 of the molar value. Read-outs that look alike come from different tables or passages of the source.

Key:
MCF7 cell line = test: Inhibition of MCF7 human breast tumor cell growth (MTT, 72 h); type: cell-based; settings: for pIC50: Homo sapiens; for relative potencies, MCF7 inhibition: TX=100; for RP (relative potency): IC50 ratio between tamoxifen and competitor, tamoxifen 100
Protocol: The MCF7 cell line is a human tumor cell line. This cell line was cultured in MEM (Eagles) media in a 5% CO^2 atmosphere with 10% fetal calf serum that had been washed twice with dextran coated charcoal to reduce endogenous estrogen levels. The media was supplemented with 1 mM sodium pyruvate and 100 μm non-essential amino acids. The cell line was screened routinely for myoplasma contamination using the GenProbe kit (Fisher). Cells were trypsinized and plated at a density of 5,000 cells/well in 96 well microtiter plates and allowed to attach and recover for 24 hours.
The media was removed by aspiration and replaced with filter sterilized drug (concentration from 10^-4 M to 10^-5 M) in media. The cells were incubated for 72 hours and then stained using the mTT tetrazolium dye assay of Mosmann^36 except that after the media was removed, the blue formazan product was solubilized in 50 μl/well DMSO.

estrogen receptor [1] = biological target: T1, estrogen receptor (Sus scrofa, UniProt Q29040); test: Estrogen receptor binding in pig uterus cytosol, displacement of [3H]estradiol; settings: for pIC50 / pKi: pig uteri cytosol, [3H]estradiol 5 nM, 4 °C; for fold estrogen receptor affinity versus native tamoxifen: relative to native tamoxifen; for RBA: relative binding affinity: Table 6, IC50 ratio between tamoxifen and competitor (tamoxifen given as 1)
T1 construct: uteri (90 gm) were obtained from immature domestic swine (15 kg); from tissue; host or cells: uterus cytosol (100,000 g supernatant, charcoal-treated) of immature domestic swine
T1 sequence (Q29040 1-595): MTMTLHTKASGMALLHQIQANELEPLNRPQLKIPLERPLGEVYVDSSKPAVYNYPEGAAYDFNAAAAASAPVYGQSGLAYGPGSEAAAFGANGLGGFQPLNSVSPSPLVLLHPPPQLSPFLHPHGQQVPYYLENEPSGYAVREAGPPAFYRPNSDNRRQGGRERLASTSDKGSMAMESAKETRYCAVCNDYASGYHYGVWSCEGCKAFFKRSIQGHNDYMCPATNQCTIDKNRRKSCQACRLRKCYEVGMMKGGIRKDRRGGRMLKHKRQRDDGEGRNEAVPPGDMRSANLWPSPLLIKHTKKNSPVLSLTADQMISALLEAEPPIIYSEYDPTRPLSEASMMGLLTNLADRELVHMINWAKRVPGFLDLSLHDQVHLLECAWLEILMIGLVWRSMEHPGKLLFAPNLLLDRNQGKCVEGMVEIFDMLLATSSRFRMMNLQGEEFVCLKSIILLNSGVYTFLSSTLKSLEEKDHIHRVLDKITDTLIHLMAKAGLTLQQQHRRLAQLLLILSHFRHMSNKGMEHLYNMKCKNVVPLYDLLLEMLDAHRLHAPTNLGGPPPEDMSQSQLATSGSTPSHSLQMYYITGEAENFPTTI
Protocol: done at 4° C. […] The protein
three experiments. In each experiment, triplicate samples were tested.
^2 IC50 : Concentration required to decrease the amount of bound
^3 RBA: Relative binding affinity is the IC50 ratio between

estrogen receptor [2] = biological target: T2, estrogen receptor (Homo sapiens, UniProt P03372); settings: cited from earlier work; for estrogen receptor binding affinity, words: literature
T2 sequence (P03372 1-595): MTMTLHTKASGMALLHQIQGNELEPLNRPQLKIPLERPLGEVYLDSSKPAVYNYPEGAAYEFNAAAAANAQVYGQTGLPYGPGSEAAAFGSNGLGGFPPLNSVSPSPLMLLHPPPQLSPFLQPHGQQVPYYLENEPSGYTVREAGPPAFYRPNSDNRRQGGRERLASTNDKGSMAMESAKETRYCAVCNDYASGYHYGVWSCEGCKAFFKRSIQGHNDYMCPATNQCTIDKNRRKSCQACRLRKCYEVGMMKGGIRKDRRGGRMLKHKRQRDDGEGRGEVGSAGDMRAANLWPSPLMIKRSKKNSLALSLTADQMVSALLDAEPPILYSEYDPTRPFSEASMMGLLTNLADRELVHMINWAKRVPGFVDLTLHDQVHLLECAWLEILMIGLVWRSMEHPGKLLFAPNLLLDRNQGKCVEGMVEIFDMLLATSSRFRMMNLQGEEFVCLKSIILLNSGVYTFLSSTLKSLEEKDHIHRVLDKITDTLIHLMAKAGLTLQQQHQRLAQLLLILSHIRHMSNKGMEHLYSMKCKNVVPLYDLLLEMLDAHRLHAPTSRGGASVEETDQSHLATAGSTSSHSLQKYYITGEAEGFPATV

uterus = settings: Allen et al. 1980; cited from earlier work
[3] = Biodistribution of N,N-diethyl-[18F]fluoromethyltamoxifen in rats; type: in vivo, rat (female Sprague-Dawley)
Protocol: Four groups of rats (150-200 gm, N=4/group) were anesthetized with ketamine (10-15 mg/rat). […]. Tissue uptake of ^18 F-tracer was determined at 2 and 4 hours (h). To ascertain whether the ^18 F-tracer uptake was mediated by a receptor-process, one group of rats was given ^18 F-tracer without priming with estradiol; and another group of rats was given unlabeled estradiol (30 μg/rat) together with ^18 F-tracer. […]
*Without prime with estradiol (control); rats weighted about 175 gm.

[4] = In vivo tissue uptake of 131I-IMTX (trans) in rat; settings: for liver uptake / uterus uptake: n=5
[5] = Table 7, MCF7, 72 h, average of three experiments, read-out: IC50 Dose
[6] = 2h (BLOCK), coinjected estradiol 30 μg

With `CCN(CC)CCOc1ccc(/C(=C(/CCF)c2ccccc2)c2ccccc2)cc1` (single isomer, unassigned) [Compound IV (trans), N,N-diethyl-fluorotamoxifen] the pIC50 (MCF7 cell line; [5]) was 4.87, the RBA (estrogen receptor [1]) was 250 and the “estrogen receptor binding, result in words” value (estrogen receptor [1]) was “higher binding affinity than the cis isomer”. For the same compound, the pIC50 (estrogen receptor [1]; Table 5) was 4.92, the pKi (estrogen receptor [1]; Table 5) was 5.22 and the “fold estrogen receptor affinity versus native tamoxifen” value (estrogen receptor [1]) was “two and a half times that of tamoxifen”.

With `CCN(CC)CCOc1ccc(/C(=C(\CCF)c2ccccc2)c2ccccc2)cc1` (single isomer, unassigned) [IV (cis), N,N-diethyl-fluorotamoxifen] the “MCF7 tumor cell inhibition, result in words” value (shortened to “MCF7 tumor cell inhibition”) (MCF7 cell line) was “effective for inhibiting a breast tumor cell line”, the pIC50 (MCF7 cell line; [5]) was 5.39 and the “MCF7 tumor cell inhibition” value (MCF7 cell line; listed as cis N,N-diethyl-fluoro) was “more potent than the trans isomers”. It also gave a pIC50 (estrogen receptor [1]; Table 5) of 4.52, a pKi (estrogen receptor [1]; Table 5) of 4.82 and an RBA (estrogen receptor [1]; Table 5, tamoxifen is 100 as the standard) of 100.

In the case of `CC/C(=C(\c1ccc(Cl)cc1)c1ccc(OCCN(C)C)cc1)c1ccccc1` [Compound 4-chloro], the “estrogen receptor binding affinity, words” value (estrogen receptor [2]) is listed as “approximately equal activity for estrogen receptor binding affinity compared to tamoxifen in vitro” and the “anti-estrogenic activity, uterine weight tests” value (uterus) is listed as “lower anti-estrogenic activity than tamoxifen”.

For `CC/C(=C(\c1ccc(F)cc1)c1ccc(OCCN(C)C)cc1)c1ccccc1` [Compound 4-fluoro], the “estrogen receptor binding affinity, words” value (estrogen receptor [2]) is given as “approximately equal activity for estrogen receptor binding affinity compared to tamoxifen in vitro” and the “anti-estrogenic activity, uterine weight tests” value (uterus) is given as “lower anti-estrogenic activity than tamoxifen”.

For `CCN(CC)CCOc1ccc(/C(=C(\CCCO)c2ccccc2)c2ccccc2)cc1` [Compound III (cis), N,N-diethyl-hydroxymethyltamoxifen], the “relative potencies, MCF7 inhibition” value (MCF7 cell line) was 66 and the “RP (relative potency)” value (MCF7 cell line; Table 7) was 66.

In the case of `CCN(CC)CCOc1ccc(/C(=C(\CCCF)c2ccccc2)c2ccccc2)cc1` [Compound VI (cis), N,N-diethyl-fluoromethyltamoxifen], the “MCF7 tumor cell inhibition” value (MCF7 cell line) was “effective for inhibiting a breast tumor cell line” and the “MCF7 tumor cell inhibition” value (MCF7 cell line; listed as cis N,N-diethyl-fluoromethyl) was “more potent than the trans isomers”.

In the case of `CCN(CC)CCOc1ccc(/C(=C(/CCCF)c2ccccc2)c2ccccc2)cc1` [Compound VI (trans)], the “MCF7 tumor cell inhibition” value (MCF7 cell line) was “effective for inhibiting a breast tumor cell line” and the pIC50 (MCF7 cell line; MCF7, read-out: IC50, MCF7 cell inhibition) was 5.74.

In the case of `CN(C)CCOc1ccc(/C(=C(\CCF)c2ccccc2)c2ccccc2)cc1` [Compound VII (cis), Fluorotamoxifen], the pIC50 (MCF7 cell line; [5]) was 5.35.

For `CCN(CC)CCOc1ccc(/C(=C(\CCCBr)c2ccccc2)c2ccccc2)cc1` [Compound XI (cis)], the “relative potencies, MCF7 inhibition” value (MCF7 cell line) was 2355, the “RP (relative potency)” value (MCF7 cell line; Table 7) was 2355 and the “RBA: relative binding affinity” value (estrogen receptor [1]) was 37.5. For the same compound, the “fold estrogen receptor affinity versus native tamoxifen” value (estrogen receptor [1]) was 38 fold.

With `CCN(CC)CCOc1ccc(/C(=C(/CCCBr)c2ccccc2)c2ccccc2)cc1` [Compound XI (trans)] the “relative potencies, MCF7 inhibition” value (MCF7 cell line) was 298, the “RP (relative potency)” value (MCF7 cell line; Table 7) was 298 and the “RBA: relative binding affinity” value (estrogen receptor [1]) was 150. The “fold estrogen receptor affinity versus native tamoxifen” value (estrogen receptor [1]) was 50 fold.

`CCN(CC)CCOc1ccc(/C(=C(\CCCCl)c2ccccc2)c2ccccc2)cc1` [Compound XII (cis), 1[4-(2-Diethylaminoethoxy)phenyl]-1,2-diphenyl-5-chloro-1-pentene (N,N-Diethylchloromethyltamoxifen)] gave a pIC50 (MCF7 cell line; [5]) of 5.36.

With `CCN(CC)CCOc1ccc(/C(=C(/CCCO)c2ccccc2)c2ccccc2)cc1` [III (trans), N,N-diethyl-hydroxymethyltamoxifen] the “relative potencies, MCF7 inhibition” value (MCF7 cell line) was 50, the “RP (relative potency)” value (MCF7 cell line; Table 7) was 50 and the “RBA: relative binding affinity” value (estrogen receptor [1]) was 4.

`CCN(CC)CCOc1ccc(C(=C(CCC[18F])c2ccccc2)c2ccccc2)cc1` [N,N-DIETHYL-[^18 F]FLUOROMETHYLTAMOXIFEN, N,N-Diethyl-[^18 F]Fluoromethyltamoxifen] gave an MUSCLE uptake [3, 6] of 0.145 ± 0.0446 % OF INJECTED DOSE/GRAM, a liver uptake [3, 6] of 4.451 ± 1.1559 % OF INJECTED DOSE/GRAM and a BONE uptake ([3]; 2h*, without prime with estradiol) of 0.644 ± 0.0656 % OF INJECTED DOSE/GRAM. For the same compound, the KIDNEY uptake ([3]; 4h, estradiol primed) was 0.796 ± 0.0300 % OF INJECTED DOSE/GRAM and the “uterus uptake, result in words” value ([3]; estradiol-primed rats, coinjection of estradiol) was “increased uptake was blocked by coinjection of estradiol”.

`CN(C)CCOc1ccc(/C(=C(/CCF)c2ccccc2)c2ccccc2)cc1` [VII (trans), Trans-Fluorotamoxifen] gave a pIC50 (MCF7 cell line; [5]) of 4.93.

For `CCN(CC)CCOc1ccc(/C(=C(\CCCI)c2ccccc2)c2ccccc2)cc1` [X (cis), N,N-diethyl-iodomethyltamoxifen], the “MCF7 tumor cell inhibition” value (MCF7 cell line) was “effective for inhibiting a breast tumor cell line”, the “MCF7 tumor cell inhibition” value (MCF7 cell line; listed as cis N,N-diethyl-iodomethyl) was “more potent than the trans isomers” and the “RBA: relative binding affinity” value (estrogen receptor [1]) was 10. The “fold estrogen receptor affinity versus native tamoxifen” value (estrogen receptor [1]) was 10 fold.

For `CCN(CC)CCOc1ccc(/C(=C(/CCCI)c2ccccc2)c2ccccc2)cc1` [X (trans)], the “MCF7 tumor cell inhibition” value (MCF7 cell line) was “effective for inhibiting a breast tumor cell line” and the “fold estrogen receptor affinity versus native tamoxifen” value (estrogen receptor [1]) was 15 fold.

For `CCN(CC)CCOc1ccc(/C(=C(/CCC[131I])c2ccccc2)c2ccccc2)cc1` [^131 I-IMTX (trans), N,N-diethyl [^131 I]iodomethyltamoxifen], the Uterus/blood ratio ([4]; 3h) was 1.6, the uterus/muscle ratio ([4]; 3h) was 11.0 and the liver uptake ([4]; 3h) was 5.3±0.84 % injected dose per organ. The uterus uptake ([4]; 3h) was 0.5±0.04 % injected dose per organ, the Uterus/blood ratio ([4]; 6h) was 1.5 and the uterus/muscle ratio ([4]; 6h) was 7.6. The liver uptake ([4]; 6h) was 3.0±0.02 % injected dose per organ, the uterus uptake ([4]; 6h) was 0.14±0.16 % injected dose per organ and the Uterus/blood ratio ([4]; 24h) was 1.2. The uterus/muscle ratio ([4]; 24h) was 3.6, the liver uptake ([4]; 24h) was 1.7±0.21 % injected dose per organ and the uterus uptake ([4]; 24h) was 0.01±0.001 % injected dose per organ.

In the case of `CC/C(=C(/c1ccccc1)c1ccc(OCCN2CC2)cc1)c1ccccc1` [cis isomer of tamoxifen azizidine, tamoxifen azizidine], the “affinity loss of cis versus trans isomer” value (estrogen receptor [2]; Salituro et al., 50-fold less affinity than the trans isomer) is given as 50 fold.
